Laboratory results: patent US11414416B1, “Compounds and uses thereof” (Foghorn Therapeutics Inc., priority 2019, dated 2022)
Read-outs that look alike come from different tables or passages of the source.

Tests used:
[1] = molecular target: BRD9 bromodomain (Homo sapiens (Human), UniProt Q9H8M2); test: BRD9 bromodomain TR-FRET competition binding assay; settings: Table 4; competition with biotinylated ligand, 3 nM Flag-BRD9, 90 minutes
Description: Procedure: His-Flag-BRD9 (P133-K239; Swiss Prot Q9H8M2; SEQ ID NO:1 mgsshhhhhhenlyfq/gdykddddkgslevlfqg/[…] […]) was cloned, expressed, purified, and then treated with TEV protease. Cleaved His tag was removed by purification. The binding of a biotinylated small molecule ligand of BRD9 was assessed via the LANCE® TR-FRET platform (PerkinElmer), and the compounds were assayed for inhibitory activity against this interaction.
A mixture of biotinylated-ligand and SureLight™ Allophycocyanin-Streptavidin (APC-SA, PerkinElmer AD0201) in 50 mM HEPES (pH 7.4), 50 mM NaCl, 1 mM TCEP (pH 7), 0.01% (v/v) Tween-20, 0.01% (w/v) bovine serum albumin was added to a white 384-well PerkinElmer Proxiplate Plus plate. DMSO or 3-fold serially diluted compounds were then added to the Proxiplate followed by addition of Flag-BRD9. After a 10-minute incubation at room temperature, Eu-W1024 anti-FLAG (PerkinElmer, AD0273) was added. The final reaction mixture that contained 3.75 nM biotinylated ligand, 3 nM Flag-BRD9, 7.5 nM SureLight™ Allophycocyanin-Streptavidin, and 0.2 nM Eu-W1024 anti-FLAG was incubated at room temperature for 90 minutes.
Results: The plates were then read on a PerkinElmer Envision plate reader to determine the ratio of emission at 665 nm over 615 nm. […]

[2] = molecular target: Nanoluciferase-BRD9 fusion protein (Homo sapiens (Human), UniProt Q9H8M2); test: SYO1 BRD9 NanoLuc degradation assay; assay type: cell-based; settings: SYO-1 cells expressing 3×FLAG-NLuc-BRD9, 6 hours; for DC50: read-out: SYO1 BRD9-NanoLuc degradation IC50
Sequence of Nanoluciferase-BRD9 fusion protein (Q9H8M2 whole entry, the tested form may be a part): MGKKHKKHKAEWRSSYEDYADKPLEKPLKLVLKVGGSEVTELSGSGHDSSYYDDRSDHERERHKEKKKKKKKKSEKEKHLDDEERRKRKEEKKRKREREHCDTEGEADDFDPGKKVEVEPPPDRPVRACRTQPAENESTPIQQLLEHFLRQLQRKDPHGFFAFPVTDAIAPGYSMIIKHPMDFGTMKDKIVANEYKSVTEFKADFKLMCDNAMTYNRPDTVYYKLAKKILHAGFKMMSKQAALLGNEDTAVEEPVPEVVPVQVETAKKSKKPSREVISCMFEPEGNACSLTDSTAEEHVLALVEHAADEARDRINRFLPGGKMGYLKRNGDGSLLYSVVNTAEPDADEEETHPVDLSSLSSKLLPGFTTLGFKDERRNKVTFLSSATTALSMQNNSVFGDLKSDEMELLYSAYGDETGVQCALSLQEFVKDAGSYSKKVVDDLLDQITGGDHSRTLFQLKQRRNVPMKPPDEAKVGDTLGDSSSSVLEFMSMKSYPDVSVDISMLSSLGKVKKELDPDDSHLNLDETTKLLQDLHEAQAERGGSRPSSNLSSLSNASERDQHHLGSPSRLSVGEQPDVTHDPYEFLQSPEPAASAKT
How it was run: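 Degradation was read as loss of nanoluciferase signal (Nano-Glo) after 6 h compound exposure in a stable SYO-1 line carrying 3×FLAG-NLuc-BRD9 (8000 cells/well). Normalised between DMSO (high) and a 1 μM known BRD9 degrader (low).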

Sequence of BRD9 bromodomain (Q9H8M2 133-239): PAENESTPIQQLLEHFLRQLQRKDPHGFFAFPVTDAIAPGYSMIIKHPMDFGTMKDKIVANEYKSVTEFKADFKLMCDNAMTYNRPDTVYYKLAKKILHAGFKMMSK

Structure (SMILES): COc1cc(-c2cn(C)c(=O)c3cnccc23)cc(OC)c1CN1CC2(CC(NC(=O)CCOCCOc3ccc4c(c3)C(=O)N(C3CCC(=O)NC3=O)C4=O)C2)C1 (centres unmarked) [Compound D101]
- IC50 [1]: < 10 nM
- DC50 ([2]; Table 5A): 100 to 1000 nM

Structure (SMILES): COc1cc(-c2cn(C)c(=O)c3cnccc23)cc(OC)c1CN(C)C1CCC2CN(C(=O)CCOCCOc3ccc4c(c3)C(=O)N(C3CCC(=O)NC3=O)C4=O)CC21 (centres unmarked) [Compound D170]
- IC50 [1]: 10 to 100 nM
- IC50 ([2]; Table 5A): < 10 nM

Structure (SMILES): COc1cc(-c2cn(C)c(=O)c3cnccc23)cc(OC)c1CN1CCC2(CC1)CN(C(=O)CCOCCOc1cccc3c1C(=O)N(C1CCC(=O)NC1=O)C3=O)C2 (centres unmarked) [Compound D88]
- IC50 [1]: < 10 nM
- DC50 ([2]; Table 5A): 10 to 100 nM

Structure (SMILES): COc1cc(-c2cn(C)c(=O)c3cnccc23)cc(OC)c1CN1CC2(CCN(C(=O)CCOCCOc3ccc4c(c3)C(=O)N(C3CCC(=O)NC3=O)C4=O)CC2)C1 (centres unmarked) [Compound D118]
- IC50 [1]: < 10 nM
- DC50 ([2]; Table 5A): 10 to 100 nM

Structure (SMILES): COc1cc(-c2cn(C)c(=O)c3cnccc23)cc(OC)c1CN(C)CC1CC2(CCN(C(=O)CCOCCOc3ccc4c(c3)C(=O)N(C3CCC(=O)NC3=O)C4=O)CC2)O1 (centres unmarked) [Compound D167]
- IC50 [1]: < 10 nM
- IC50 ([2]; Table 5A): < 10 nM

Structure (SMILES): COc1cc(-c2cn(C)c(=O)c3cnccc23)cc(OC)c1CN(C)CC1CC2CN(C(=O)CCOCCOc3cccc4c3C(=O)N(C3CCC(=O)NC3=O)C4=O)C[C@@H]2C1 (some centres unmarked) [Compound D166]
- IC50 [1]: < 10 nM
- DC50 ([2]; Table 5A): 10 to 100 nM

Structure (SMILES): COc1cc(-c2cn(C)c(=O)c3cnccc23)cc(OC)c1CN1CCC12CN(C(=O)CCOCCOc1ccc3c(c1)C(=O)N(C1CCC(=O)NC1=O)C3=O)C2 (centres unmarked) [Compound D98]
- IC50 [1]: 100 to 1000 nM
- IC50 ([2]; Table 5A): 100 to 1000 nM

Structure (SMILES): COc1cc(-c2cn(C)c(=O)c3cnccc23)cc(OC)c1CN(C)C1CCC12CCN(C(=O)CCOCCOc1cccc3c1C(=O)N(C1CCC(=O)NC1=O)C3=O)CC2 (centres unmarked) [Compound D110]
- IC50 [1]: 10 to 100 nM
- IC50 ([2]; Table 5A): 10 to 100 nM

Structure (SMILES): COc1cc(-c2cn(C)c(=O)c3cnccc23)cc(OC)c1CN1CCC2(C[C@H]2NC(=O)CCOCCOc2ccc3c(c2)C(=O)N(C2CCC(=O)NC2=O)C3=O)C1 (some centres unmarked) [Compound D126]
- IC50 [1]: 10 to 100 nM
- IC50 ([2]; Table 5A): 100 to 1000 nM

Structure (SMILES): COc1cc(-c2cn(C)c(=O)c3cnccc23)cc(OC)c1CN1CC(C(=O)NCCOCCOCCNc2cccc3c2C(=O)N(C2CCC(=O)NC2=O)C3=O)C1 (centres unmarked) [Compound D7, 1-[[2,6-dimethoxy-4-(2-methyl-1-oxo-1,2-dihydro-2,7-naphthyridin-4-yl)phenyl]methyl]-N-[2-[2-(2-[[2-(2,6-dioxopiperidin-3-yl)-1,3-dioxo-2,3-dihydro-1H-isoindol-4-yl]amino]ethoxy)ethoxy]ethyl]azetidine-3-carboxamide formic acid]
- IC50 [1]: < 10 nM
- DC50 ([2]; Table 5A): 10 to 100 nM

Structure (SMILES): COc1cc(-c2cn(C)c(=O)c3cnccc23)cc(OC)c1CN1CC(S(=O)(=O)NCCOCCOCCNc2cccc3c2C(=O)N(C2CCC(=O)NC2=O)C3=O)C1 (centres unmarked) [Compound D38, 1-[[2,6-dimethoxy-4-(2-methyl-1-oxo-2,7-naphthyridin-4-yl)phenyl]methyl]-N-[2-[2-(2-[[2-(2,6-dioxopiperidin-3-yl)-1,3-dioxoisoindol-4-yl]amino]ethoxy)ethoxy]ethyl]azetidine-3-sulfonamide formic acid]
- IC50 [1]: < 10 nM
- IC50 ([2]; Table 5A): < 10 nM

Structure (SMILES): COc1cc(-c2cn(C)c(=O)c3cnccc23)cc(OC)c1CN1CC2(CCN(C(=O)CCOCCOc3ccc4c(c3)C(=O)N(C3CCC(=O)NC3=O)C4=O)C2)C1 (centres unmarked) [Compound D122]
- IC50 [1]: < 10 nM
- IC50 ([2]; Table 5A): < 10 nM

Structure (SMILES): COc1cc(-c2cn(C)c(=O)c3cnccc23)cc(OC)c1CN(C)CC1CC2(C1)CN(C(=O)CCOCCOc1ccc3c(c1)C(=O)N(C1CCC(=O)NC1=O)C3=O)C2 (centres unmarked) [Compound D174]
- IC50 [1]: 10 to 100 nM
- IC50 ([2]; Table 5A): 100 to 1000 nM

Structure (SMILES): COc1cc(-c2cn(C)c(=O)c3cnccc23)cc(OC)c1CN(C)C1CC2CC1CN2C(=O)CCOCCOc1cccc2c1C(=O)N(C1CCC(=O)NC1=O)C2=O (centres unmarked) [Compound D162]
- IC50 [1]: 10 to 100 nM
- IC50 ([2]; Table 5A): 10 to 100 nM

Structure (SMILES): COc1cc(-c2cn(C)c(=O)c3cnccc23)cc(OC)c1CN1CCC2CCN(C(=O)CCOCCOc3cccc4c3C(=O)N(C3CCC(=O)NC3=O)C4=O)CC21 (centres unmarked) [Compound D91]
- IC50 [1]: 10 to 100 nM
- IC50 ([2]; Table 5A): 10 to 100 nM

Structure (SMILES): COc1cc(-c2cn(C)c(=O)c3cnccc23)cc(OC)c1CN1CCN(C(=O)C2CC2CNC(=O)COc2ccc3c(c2)C(=O)N(C2CCC(=O)NC2=O)C3=O)CC1 (centres unmarked) [Compound D66, N-[[2-(4-[[2,6-dimethoxy-4-(2-methyl-1-oxo-2,7-naphthyridin-4-yl)phenyl]methyl]piperazine-1-carbonyl)cyclopropyl]methyl]-2-[[2-(2,6-dioxopiperidin-3-yl)-1,3-dioxoisoindol-5-yl]oxy]acetamide formic acid]
- IC50 [1]: 10 to 100 nM
- IC50 ([2]; Table 5A): 100 to 1000 nM

Structure (SMILES): COc1cc(-c2cn(C)c(=O)c3cnccc23)cc(OC)c1CN1CC[C@H]1C(=O)NCCCCCCCCNc1cccc2c1C(=O)N(C1CCC(=O)NC1=O)C2=O (stereo partly drawn) [Compound D11, (2S)-1-[[2,6-dimethoxy-4-(2-methyl-1-oxo-2,7-naphthyridin-4-yl)phenyl]methyl]-N-(8-[[2-(2,6-dioxopiperidin-3-yl)-1,3-dioxoisoindol-4-yl]amino]octyl)azetidine-2-carboxamide]
- IC50 [1]: 10 to 100 nM
- IC50 ([2]; Table 5A): < 10 nM

Structure (SMILES): COc1cc(-c2cn(C)c(=O)c3cnccc23)cc(OC)c1CN(C)CC(=O)NCCCC(=O)NC12CC(Nc3cccc4c3C(=O)N(C3CCC(=O)NC3=O)C4=O)(C1)C2 (centres unmarked) [Compound D71, 4-(2-((2,6-dimethoxy-4-(2-methyl-1-oxo-1,2-dihydro-2,7-naphthyridin-4-yl)benzyl) (methyl)amino)acetamido)-N-(3-((2-(2,6-dioxopiperidin-3-yl)-1,3-dioxoisoindolin-4-yl)amino)bicycle[1.1.1]pentan-1-yl)butanamide]
- IC50 [1]: < 10 nM
- DC50 ([2]; Table 5A): < 10 nM

Structure (SMILES): COc1cc(-c2cn(C)c(=O)c3cnccc23)cc(OC)c1CN1CC2CN(C(=O)CCOCCOc3cccc4c3C(=O)N(C3CCC(=O)NC3=O)C4=O)CCC21 (centres unmarked) [Compound D92]
- IC50 [1]: < 10 nM

Structure (SMILES): COc1cc(-c2cn(C)c(=O)c3cnccc23)cc(OC)c1CN1CC(CC(=O)N2CC3(CCN(c4ccc5c(c4)C(=O)N(C4CCC(=O)NC4=O)C5=O)CC3)C2)C1 (centres unmarked) [Compound D190]
- DC50 ([2]; Table 5B): 10 to 100 nM

Structure (SMILES): COc1cc(-c2cn(C)c(=O)c3cnccc23)cc(OC)c1CN1CC(S(=O)(=O)NCCN2CCN(c3ccc4c(c3)C(=O)N(C3CCC(=O)NC3=O)C4=O)CC2)C1 (centres unmarked) [Compound D179]
- DC50 ([2]; Table 5B): 10 to 100 nM

Structure (SMILES): COc1cc(-c2cc(C(F)F)c(=O)n(C)c2)cc(OC)c1-c1ccc2c(c1)C(=O)N(C1CCC(=O)NC1=O)C2 (centres unmarked) [Compound D451]
- DC50 ([2]; Table 5C): 10 to 100 nM

Structure (SMILES): COc1cc(-c2cn(C)c(=O)c3cnccc23)cc(OC)c1CN(C)CCCCN1CC(Oc2ccc3c(c2)C(=O)N(C2CCC(=O)NC2=O)C3=O)C1 (centres unmarked) [Compound D249]
- DC50 ([2]; Table 5B): 10 to 100 nM

Structure (SMILES): COc1cc(-c2cn(C)c(=O)c3cnccc23)cc(OC)c1CN1CCC2(C1)CN(C(=O)C#Cc1ccc3c(c1)C(=O)N(C1CCC(=O)NC1=O)C3=O)C2 (centres unmarked) [Compound D241]
- DC50 ([2]; Table 5B): < 10 nM

Structure (SMILES): COc1cc(-c2cn(C)c(=O)c3cnccc23)cc(OC)c1CN(C)C(=O)CCCCNC1CC2(C1)CC(Oc1ccc3c(c1)C(=O)N(C1CCC(=O)NC1=O)C3=O)C2 (centres unmarked) [Compound D260]
- DC50 ([2]; Table 5B): < 10 nM

Structure (SMILES): COc1cc(-c2cn(C)c(=O)c3cnccc23)cc(OC)c1CN1CC2(CCN(CC#Cc3ccc4c(c3)C(=O)N(C3CCC(=O)NC3=O)C4=O)C2)C1 (centres unmarked) [Compound D306]
- DC50 ([2]; Table 5B): < 10 nM

Structure (SMILES): COc1cc(-c2cn(C)c(=O)c3cn(OC)nc23)cc(OC)c1CN1CCC2(CC1)CN(c1ccc3c(c1)C(=O)N(C1CCC(=O)NC1=O)C3)C2 (centres unmarked) [Compound D462]
- DC50 ([2]; Table 5C): < 10 nM

Structure (SMILES): COc1cc(-c2cc(C)c(=O)n(C)c2)cc(OC)c1CN1Cc2cc3c(cc2C1)C(=O)N(C1CCC(=O)NC1=O)C3=O (centres unmarked) [DD9]
- DC50 ([2]; Table 5B): < 10 nM

Structure (SMILES): COc1cc(-c2cn(C)c(=O)c3cnccc23)cc(OC)c1CN1CC(Oc2ccc3c(c2)CN(C2CCC(=O)NC2=O)C3=O)C1 (centres unmarked) [Compound D375]
- DC50 ([2]; Table 5C): < 10 nM

Structure (SMILES): COc1cc(-c2cn(C)c(=O)c3cnccc23)cc(OC)c1CN(C)CCOCCOCCOCC(=O)N[C@@H](C(=O)N1C[C@@H](O)C[C@@H]1C(=O)NCc1ccc(-c2scnc2C)cc1)C(C)(C)C [DD1]
- DC50 ([2]; Table 5B): > 1000 nM

Structure (SMILES): COc1cc(-c2cn(C)c(=O)c3cnccc23)cc(OC)c1CN1CCC(CN2CCC3(CN(c4ccc5c(c4)CN(C4CCC(=O)NC4=O)C5=O)C3)C(F)(F)C2)CC1 (centres unmarked) [Compound D379]
- DC50 ([2]; Table 5C): < 10 nM

Structure (SMILES): COc1cc(-c2cc(C)c(=O)n(C)c2)cc(OC)c1CN1CCC2(C1)CN(c1ccc3c(c1)C(=O)N(C1CCC(=O)NC1=O)C3=O)C2 (centres unmarked) [Compound D337]
- DC50 ([2]; Table 5B): < 10 nM
